Measured values taken from PubChem BioAssay AID1919009 (Molecular Pharmacology Branch, DTP, NCI, 2023).

Test system: K24384-001-R-PDC complex spheroid growth
Assay: Anticancer human tumor K24384-001-R-PDC patient-derived pancreatic adenocarcinoma cell line growth inhibition [AhR]
Settings: for IC50: curve of first compound; for viability, T/C: stronger effect = lower value
How it was run: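 Spheroids combined tumor cells with HUVEC endothelial cells and human MSCs as stroma. AhR antagonists were paired with standard or investigational drugs, each dosed in half-log steps down from near clinical Cmax, or from 10 microM where Cmax was unknown.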
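Wherever viability, T/C is given: percent of DMSO vehicle-treated spheroid viability set as 100%.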

COc1cc(Nc2ncc3c(n2)-c2ccc(Cl)cc2C(c2c(F)cccc2OC)=NC3)ccc1C(=O)O + CC(CO)NC(=O)c1cc(-c2ccc(Cl)cc2)nn(-c2cnn(C)c2)c1=O
IC50 (second compound 0.1 µM): 2010 nM
IC50 (second compound 0.316 µM): 7780 nM
IC50 (second compound 1 µM): > 10000 nM
IC50 (second compound 3.16 µM): > 10000 nM
IC50 (second compound 10 µM): > 10000 nM
viability, T/C (second compound 0.1 µM, first compound 0.0316 µM): 87.6%
viability, T/C (second compound 0.1 µM, first compound 0.1 µM): 80.7%
viability, T/C (second compound 0.1 µM, first compound 0.316 µM): 84%
viability, T/C (second compound 0.1 µM, first compound 1 µM): 57.6%
viability, T/C (second compound 0.1 µM, first compound 3.16 µM): 44.5%
viability, T/C (second compound 0.1 µM, first compound 10 µM): 45.5%
viability, T/C (second compound 0.316 µM, first compound 0.0316 µM): 81%
viability, T/C (second compound 0.316 µM, first compound 0.1 µM): 79.9%
viability, T/C (second compound 0.316 µM, first compound 0.316 µM): 76.4%
viability, T/C (second compound 0.316 µM, first compound 1 µM): 57.5%
viability, T/C (second compound 0.316 µM, first compound 3.16 µM): 48.4%
viability, T/C (second compound 0.316 µM, first compound 10 µM): 51.6%
viability, T/C (second compound 1 µM, first compound 0.0316 µM): 92.3%
viability, T/C (second compound 1 µM, first compound 0.1 µM): 77.7%
viability, T/C (second compound 1 µM, first compound 0.316 µM): 79.4%
viability, T/C (second compound 1 µM, first compound 1 µM): 60.5%
viability, T/C (second compound 1 µM, first compound 3.16 µM): 49.5%
viability, T/C (second compound 1 µM, first compound 10 µM): 55%
viability, T/C (second compound 3.16 µM, first compound 0.0316 µM): 90.6%
viability, T/C (second compound 3.16 µM, first compound 0.1 µM): 73.4%
viability, T/C (second compound 3.16 µM, first compound 0.316 µM): 72.5%
viability, T/C (second compound 3.16 µM, first compound 1 µM): 54%
viability, T/C (second compound 3.16 µM, first compound 3.16 µM): 62.3%
viability, T/C (second compound 3.16 µM, first compound 10 µM): 58.6%
viability, T/C (second compound 10 µM, first compound 0.0316 µM): 94%
viability, T/C (second compound 10 µM, first compound 0.1 µM): 77.1%
viability, T/C (second compound 10 µM, first compound 0.316 µM): 80.7%
viability, T/C (second compound 10 µM, first compound 1 µM): 69.7%
viability, T/C (second compound 10 µM, first compound 3.16 µM): 64%
viability, T/C (second compound 10 µM, first compound 10 µM): 65.8%

CCc1c2c(nc3ccc(O)cc13)-c1cc3c(c(=O)n1C2)COC(=O)[C@]3(O)CC + Cc1cncc(-c2nc(NCCc3c[nH]c4ccccc34)c3ncn(C(C)C)c3n2)c1
IC50 (second compound 0.1 µM): 2.95 nM
IC50 (second compound 0.316 µM): 3.6 nM
IC50 (second compound 1 µM): 5.67 nM
IC50 (second compound 3.16 µM): 6.01 nM
IC50 (second compound 10 µM): < 0.949 nM
viability, T/C (second compound 0.1 µM, first compound 0.000949 µM): 67.3%
viability, T/C (second compound 0.1 µM, first compound 0.003 µM): 48.4%
viability, T/C (second compound 0.1 µM, first compound 0.00949 µM): 33.4%
viability, T/C (second compound 0.1 µM, first compound 0.03 µM): 34.9%
viability, T/C (second compound 0.1 µM, first compound 0.0949 µM): 28%
viability, T/C (second compound 0.1 µM, first compound 0.3 µM): 16.8%
viability, T/C (second compound 0.316 µM, first compound 0.000949 µM): 68.9%
viability, T/C (second compound 0.316 µM, first compound 0.003 µM): 47.1%
viability, T/C (second compound 0.316 µM, first compound 0.00949 µM): 37.6%
viability, T/C (second compound 0.316 µM, first compound 0.03 µM): 35.9%
viability, T/C (second compound 0.316 µM, first compound 0.0949 µM): 23.9%
viability, T/C (second compound 0.316 µM, first compound 0.3 µM): 14%
viability, T/C (second compound 1 µM, first compound 0.000949 µM): 76.9%
viability, T/C (second compound 1 µM, first compound 0.003 µM): 59.1%
viability, T/C (second compound 1 µM, first compound 0.00949 µM): 41.5%
viability, T/C (second compound 1 µM, first compound 0.03 µM): 32%
viability, T/C (second compound 1 µM, first compound 0.0949 µM): 26.4%
viability, T/C (second compound 1 µM, first compound 0.3 µM): 16.8%
viability, T/C (second compound 3.16 µM, first compound 0.000949 µM): 60%
viability, T/C (second compound 3.16 µM, first compound 0.003 µM): 52.6%
viability, T/C (second compound 3.16 µM, first compound 0.00949 µM): 49.2%
viability, T/C (second compound 3.16 µM, first compound 0.03 µM): 29.8%
viability, T/C (second compound 3.16 µM, first compound 0.0949 µM): 21.7%
viability, T/C (second compound 3.16 µM, first compound 0.3 µM): 13.9%
viability, T/C (second compound 10 µM, first compound 0.000949 µM): 5.03%
viability, T/C (second compound 10 µM, first compound 0.003 µM): 5.63%
viability, T/C (second compound 10 µM, first compound 0.00949 µM): 6.51%
viability, T/C (second compound 10 µM, first compound 0.03 µM): 3.31%
viability, T/C (second compound 10 µM, first compound 0.0949 µM): 4.86%
viability, T/C (second compound 10 µM, first compound 0.3 µM): 3.7%
